Data published in PubChem BioAssay AID328 (DTP/NCI, 2004).
Several values for one entry are separate records, joined by “and”; a condition that tells them apart may be missing. Equal values may be shown once. Inconclusive results and toxic doses are left out.

System: BDF1 mice, P388 leukemia ip, median survival T/C
Assay: NCI In Vivo Anticancer Drug Screen. Data for tumor model P388 Leukemia (intraperitoneal) in B6D2F1 (BDF1) mice
Details: endpoint: median survival time, higher = longer survival
Method in brief: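 Transplantable tumour in mice; compound vs vehicle dosing; survival scored; ratio of treated to control reported.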

[1] = dose: 100.0 mg/kg/injection, schedule: Q01DX009 (ip), vehicle: Klucel (hydroxypropylcellulose) (HPC)
[2] = dose: 200.0 mg/kg/injection, schedule: Q01DX009 (ip), vehicle: Klucel (hydroxypropylcellulose) (HPC)
[3] = dose: 100.0 mg/kg/injection, schedule: Q04DX003 (ip), vehicle: saline with Tween-80
[4] = dose: 100.0 mg/kg/injection, schedule: Q04DX003 (ip), vehicle: saline
[5] = dose: 200.0 mg/kg/injection, schedule: Q04DX003 (ip), vehicle: saline
[6] = dose: 400.0 mg/kg/injection, schedule: Q04DX003 (ip), vehicle: saline
[7] = dose: 100.0 mg/kg/injection, schedule: Q04DX003 (ip), vehicle: Klucel (hydroxypropylcellulose) (HPC)
[8] = dose: 200.0 mg/kg/injection, schedule: Q04DX003 (ip), vehicle: Klucel (hydroxypropylcellulose) (HPC)
[9] = dose: 400.0 mg/kg/injection, schedule: Q04DX003 (ip), vehicle: Klucel (hydroxypropylcellulose) (HPC)
[10] = dose: 25.0 mg/kg/injection, schedule: Q04DX003 (ip), vehicle: water
[11] = dose: 50.0 mg/kg/injection, schedule: Q04DX003 (ip), vehicle: water
[12] = dose: 100.0 mg/kg/injection, schedule: Q01DX009 (ip), vehicle: water
[13] = dose: 100.0 mg/kg/injection, schedule: Q04DX003 (ip), vehicle: water
[14] = dose: 200.0 mg/kg/injection, schedule: Q04DX003 (ip), vehicle: water
[15] = dose: 100.0 mg/kg/injection, schedule: Q01DX001 (ip), vehicle: saline with Tween-80
[16] = dose: 100.0 mg/kg/injection, schedule: Q04DX002 (ip), vehicle: saline with Tween-80
[17] = dose: 50.0 mg/kg/injection, schedule: Q01DX009 (ip), vehicle: saline with Tween-80
[18] = dose: 100.0 mg/kg/injection, schedule: Q01DX009 (ip), vehicle: saline with Tween-80
[19] = dose: 200.0 mg/kg/injection, schedule: Q01DX009 (ip), vehicle: saline with Tween-80
[20] = dose: 400.0 mg/kg/injection, schedule: Q01DX009 (ip), vehicle: Klucel (hydroxypropylcellulose) (HPC)

CCN1/C(=C/C=C/C=C\C=C\c2sc3ccc4ccccc4c3[n+]2CC)Sc2ccc3ccccc3c21
T/C (dose: 1.56 mg/kg/injection, schedule: Q04DX002 (ip), vehicle: saline with Tween-80): 173 % of control | T/C (dose: 3.12 mg/kg/injection, schedule: Q04DX002 (ip), vehicle: saline with Tween-80): 162 % of control

Cc1ccc2n[nH]nc2c1
T/C (dose: 25.0 mg/kg/injection, schedule: Q01DX009 (ip), vehicle: Klucel (hydroxypropylcellulose) (HPC)): 99 % of control | T/C (dose: 50.0 mg/kg/injection, schedule: Q01DX009 (ip), vehicle: Klucel (hydroxypropylcellulose) (HPC)): 111 % of control | T/C [1]: 107 % of control | T/C [2]: 102 % of control

COC(=O)C1CCN(Cc2c[nH]c3ccccc23)CC1
T/C (dose: 12.5 mg/kg/injection, schedule: Q04DX003 (ip), vehicle: saline with Tween-80): 96 % of control | T/C (dose: 25.0 mg/kg/injection, schedule: Q04DX003 (ip), vehicle: saline with Tween-80): 96 % of control | T/C (dose: 50.0 mg/kg/injection, schedule: Q04DX003 (ip), vehicle: saline with Tween-80): 111 % of control | T/C [3]: 102 % of control

Oc1c(Cl)c(Cl)c(Cl)c(Cl)c1Cl (tested in a mixture with another compound)
T/C (dose: 25.0 mg/kg/injection, schedule: Q01DX009 (ip), vehicle: saline with Tween-80): 109 % of control

Cc1ncc([N+](=O)[O-])n1CCSC(N)=O
T/C [3]: 120 % of control | T/C (dose: 200.0 mg/kg/injection, schedule: Q04DX003 (ip), vehicle: saline with Tween-80): 160 % of control

COc1ccc(CNCCO)cc1
T/C (dose: 50.0 mg/kg/injection, schedule: Q04DX003 (ip), vehicle: saline): 108 % of control | T/C (dose: 100.0 mg/kg/injection, schedule: Q01DX009 (ip), vehicle: saline): 109 % of control | T/C [4]: 100 % of control and 116 % of control | T/C (dose: 200.0 mg/kg/injection, schedule: Q01DX009 (ip), vehicle: saline): 90 % of control | T/C [5]: 91 % of control | T/C (dose: 400.0 mg/kg/injection, schedule: Q01DX009 (ip), vehicle: saline): 111 % of control | T/C [6]: 91 % of control and 95 % of control

Nc1cc2ccccc2c(O)c1O
T/C (dose: 75.0 mg/kg/injection, schedule: Q04DX003 (ip), vehicle: saline sonified): 100 % of control | T/C (dose: 150.0 mg/kg/injection, schedule: Q04DX003 (ip), vehicle: saline sonified): 111 % of control | T/C (dose: 300.0 mg/kg/injection, schedule: Q04DX003 (ip), vehicle: saline sonified): 94 % of control

O=C(O)C1OC12CCCCC2 (stereo not drawn)
T/C [4]: 91 % of control | T/C [5]: 91 % of control | T/C [6]: 91 % of control

O=C(O)CCC(=O)c1cccc2ccccc12
T/C (dose: 50.0 mg/kg/injection, schedule: Q01DX001 (ip), vehicle: other): 100 % of control | T/C (dose: 50.0 mg/kg/injection, schedule: Q04DX003 (ip), vehicle: Klucel (hydroxypropylcellulose) (HPC)): 104 % of control | T/C (dose: 100.0 mg/kg/injection, schedule: Q01DX001 (ip), vehicle: other): 90 % of control | T/C [7]: 100 % of control | T/C (dose: 200.0 mg/kg/injection, schedule: Q01DX001 (ip), vehicle: other): 100 % of control | T/C [8]: 113 % of control

COC(=O)c1c(I)cccc1[N+](=O)[O-]
T/C [7]: 91 % of control | T/C [8]: 95 % of control | T/C [9]: 100 % of control

CC12CCC(C=C1N1CCCCC1)C(C)(C)O2 (stereo not drawn)
T/C (dose: 50.0 mg/kg/injection, schedule: Q01DX005 (ip), vehicle: saline with Tween-80): 101 % of control | T/C (dose: 100.0 mg/kg/injection, schedule: Q01DX005 (ip), vehicle: saline with Tween-80): 101 % of control | T/C (dose: 200.0 mg/kg/injection, schedule: Q01DX005 (ip), vehicle: saline with Tween-80): 106 % of control

CN(C(N)=O)c1c(O)nc(N)[nH]c1=O
T/C (dose: 12.5 mg/kg/injection, schedule: Q01DX009 (ip), vehicle: water): 106 % of control | T/C [10]: 106 % of control | T/C (dose: 50.0 mg/kg/injection, schedule: Q01DX009 (ip), vehicle: water): 88 % of control | T/C [11]: 100 % of control | T/C [12]: 91 % of control | T/C [13]: 106 % of control | T/C [14]: 106 % of control

O=C1C(c2ccccc2)=S=C2C=CC=CN12
T/C (dose: 12.5 mg/kg/injection, schedule: Q01DX001 (ip), vehicle: saline with Tween-80): 109 % of control | T/C (dose: 25.0 mg/kg/injection, schedule: Q01DX001 (ip), vehicle: saline with Tween-80): 100 % of control | T/C (dose: 50.0 mg/kg/injection, schedule: Q01DX001 (ip), vehicle: saline with Tween-80): 87 % of control | T/C [15]: 100 % of control

Cc1n[nH]c(=O)c2c3ccccc3nn12
T/C [16]: 103 % of control | T/C (dose: 200.0 mg/kg/injection, schedule: Q04DX002 (ip), vehicle: saline with Tween-80): 110 % of control | T/C (dose: 400.0 mg/kg/injection, schedule: Q04DX002 (ip), vehicle: saline with Tween-80): 107 % of control

O=[N+]([O-])c1ccc(S(=O)c2ccc([N+](=O)[O-])cc2)cc1
T/C [1]: 100 % of control | T/C [7]: 100 % of control | T/C [2]: 95 % of control | T/C [8]: 100 % of control | T/C [9]: 100 % of control

C=Cn1ccnc1C(O)(c1ccccc1)c1ccc(C(C)(C)C)cc1 (stereo not drawn)
T/C [17]: 93 % of control | T/C [18]: 90 % of control | T/C [19]: 93 % of control

CS(=O)/C=C(\c1ccccc1)c1cccs1 (stereo not drawn)
T/C [17]: 96 % of control | T/C [18]: 100 % of control

NC(=S)c1ccc[n+](Cc2c(Cl)cccc2Cl)c1
T/C (dose: 50.0 mg/kg/injection, schedule: Q04DX002 (ip), vehicle: saline with Tween-80): 110 % of control | T/C [16]: 101 % of control

C/C=C/C=C/C(=O)NO
T/C (dose: 100.0 mg/kg/injection, schedule: Q04DX003 (ip), vehicle: alcohol): 113 % of control | T/C [2]: 91 % of control | T/C (dose: 200.0 mg/kg/injection, schedule: Q04DX003 (ip), vehicle: alcohol): 100 % of control | T/C [20]: 116 % of control | T/C (dose: 400.0 mg/kg/injection, schedule: Q04DX003 (ip), vehicle: alcohol): 104 % of control

CC(C)(C)c1cc(C(=O)O)c(Sc2c(C(=O)O)cc(C(C)(C)C)cc2C(C)(C)O)c(C(C)(C)O)c1
T/C [15]: 101 % of control | T/C (dose: 200.0 mg/kg/injection, schedule: Q01DX001 (ip), vehicle: saline with Tween-80): 101 % of control | T/C (dose: 400.0 mg/kg/injection, schedule: Q01DX001 (ip), vehicle: saline with Tween-80): 113 % of control

CN=C(NCCCOC)c1ccc(NC(=O)Nc2ccc(NC(=O)Nc3ccc(C(=NC)NCCCOC)cc3)cc2)cc1
T/C (dose: 6.25 mg/kg/injection, schedule: Q01DX005 (ip), vehicle: Klucel (hydroxypropylcellulose) (HPC)): 104 % of control | T/C (dose: 12.5 mg/kg/injection, schedule: Q01DX005 (ip), vehicle: Klucel (hydroxypropylcellulose) (HPC)): 108 % of control | T/C (dose: 25.0 mg/kg/injection, schedule: Q01DX005 (ip), vehicle: Klucel (hydroxypropylcellulose) (HPC)): 115 % of control | T/C (dose: 50.0 mg/kg/injection, schedule: Q01DX005 (ip), vehicle: Klucel (hydroxypropylcellulose) (HPC)): 121 % of control | T/C (dose: 100.0 mg/kg/injection, schedule: Q01DX005 (ip), vehicle: Klucel (hydroxypropylcellulose) (HPC)): 107 % of control

Nc1ccc(Cl)cc1C(=O)c1ccc[nH]1
T/C [1]: 100 % of control | T/C [7]: 100 % of control | T/C [2]: 95 % of control | T/C [8]: 100 % of control | T/C [20]: 100 % of control | T/C [9]: 95 % of control

O=C(O)c1c[nH]c2nccnc12
T/C (dose: 25.0 mg/kg/injection, schedule: Q01DX009 (ip), vehicle: water): 98 % of control | T/C [10]: 103 % of control | T/C [11]: 99 % of control | T/C [12]: 88 % of control | T/C [13]: 103 % of control | T/C [14]: 103 % of control | T/C (dose: 400.0 mg/kg/injection, schedule: Q04DX003 (ip), vehicle: water): 92 % of control

NCc1c(Cl)c(Cl)c(Cl)c(CN)c1Cl
T/C [17]: 100 % of control | T/C [18]: 90 % of control | T/C [19]: 86 % of control
